# Source: ChEMBL document CHEMBL5634074, “Azaindole derivatives as potential kinase inhibitors and their SARs elucidation” (Eur J Med Chem, 2023)
# pEC50, pIC50: −log10 of the molar value.
# Tests used:
# [1] = molecular target: Voltage-gated inwardly rectifying potassium channel KCNH2 (Homo sapiens, UniProt Q12809); assay: Inhibition of hERG (unknown origin); assay type: toxicity
# KG-1 = assay: cells; conditions: Homo sapiens, KG-1, 72 h
# [2] = molecular target: High affinity nerve growth factor receptor (Homo sapiens, UniProt P04629); assay: Inhibition of TRKA (unknown origin) by Ambit kinase assay
# [3] = Efflux ratio of apparent permeability across basolateral to apical side over apical to basolateral side in dog MDCK-MDR1 cells at 5 uM incubated for 90 mins by LC-MS/MS analysis; assay type: ADME, cell-based, Canis lupus familiaris
# Dengue virus = assay: Antiviral activity against DENV infected in human Huh-7 cells assessed as reduction in viral growth incubated for 72 hrs by flow cytometry; assay type: functional, organism-based; conditions: Huh-7, 72 h
# [4] = molecular target: Proto-oncogene tyrosine-protein kinase receptor Ret (Homo sapiens, UniProt P07949); assay: Inhibition of RET (unknown origin) by DiscoverX KINOMEscan assay
# [5] = molecular target: [Pyruvate dehydrogenase (acetyl-transferring)] kinase isozyme 1, mitochondrial (Homo sapiens, UniProt Q15118); assay: Inhibition of PDK1 (unknown origin) incubated for 30 mins followed by substrate addition measured after 60 mins in presence of ATP by ADP-Glo luminescent assay
# PSN1 = assay type: functional, cell-based; conditions: Homo sapiens, PSN1, 72 h
# [6] = molecular target: T1, Receptor-interacting serine/threonine-protein kinase 1 (Homo sapiens, UniProt Q13546); assay: Inhibition of RIPK1 (unknown origin)
# T1 sequence (Q13546 whole entry): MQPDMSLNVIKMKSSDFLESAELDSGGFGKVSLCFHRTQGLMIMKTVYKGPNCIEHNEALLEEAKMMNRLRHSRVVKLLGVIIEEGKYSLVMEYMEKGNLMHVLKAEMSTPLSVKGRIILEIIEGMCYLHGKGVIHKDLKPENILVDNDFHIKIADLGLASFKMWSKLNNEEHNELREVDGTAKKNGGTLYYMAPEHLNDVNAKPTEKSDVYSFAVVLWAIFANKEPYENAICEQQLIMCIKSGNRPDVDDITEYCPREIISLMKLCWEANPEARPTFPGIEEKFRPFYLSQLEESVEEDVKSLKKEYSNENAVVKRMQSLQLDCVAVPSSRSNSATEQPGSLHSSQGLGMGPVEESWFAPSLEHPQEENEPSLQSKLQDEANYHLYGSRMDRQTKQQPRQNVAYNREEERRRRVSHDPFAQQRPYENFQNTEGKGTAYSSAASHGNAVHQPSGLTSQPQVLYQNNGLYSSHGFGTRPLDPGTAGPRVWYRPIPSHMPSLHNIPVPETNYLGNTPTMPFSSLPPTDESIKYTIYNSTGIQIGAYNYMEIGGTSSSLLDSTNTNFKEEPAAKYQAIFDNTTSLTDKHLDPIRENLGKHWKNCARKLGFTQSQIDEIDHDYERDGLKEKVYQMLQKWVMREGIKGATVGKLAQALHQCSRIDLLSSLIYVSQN
# [7] = molecular target: T1, Receptor-interacting serine/threonine-protein kinase 1; assay: Inhibition of human RIPK1 by ADP-Glo assay
# [8] = molecular target: Receptor-interacting serine/threonine-protein kinase 3 (Homo sapiens, UniProt Q9Y572); assay: Inhibition of RIPK3 (unknown origin)
# [9] = molecular target: Phosphatidylinositol 4,5-bisphosphate 3-kinase catalytic subunit alpha isoform (Homo sapiens, UniProt P42336); assay: Inhibition of PI3Kalpha (unknown origin)
# [10] = molecular target: Phosphatidylinositol 4,5-bisphosphate 3-kinase catalytic subunit beta isoform (Homo sapiens, UniProt P42338); assay: Inhibition of PI3Kbeta (unknown origin)
# [11] = molecular target: T2, Phosphatidylinositol 4,5-bisphosphate 3-kinase catalytic subunit delta isoform (Homo sapiens, UniProt O00329); assay: Inhibition of PI3Kdelta (unknown origin)
# T2 sequence (O00329 whole entry): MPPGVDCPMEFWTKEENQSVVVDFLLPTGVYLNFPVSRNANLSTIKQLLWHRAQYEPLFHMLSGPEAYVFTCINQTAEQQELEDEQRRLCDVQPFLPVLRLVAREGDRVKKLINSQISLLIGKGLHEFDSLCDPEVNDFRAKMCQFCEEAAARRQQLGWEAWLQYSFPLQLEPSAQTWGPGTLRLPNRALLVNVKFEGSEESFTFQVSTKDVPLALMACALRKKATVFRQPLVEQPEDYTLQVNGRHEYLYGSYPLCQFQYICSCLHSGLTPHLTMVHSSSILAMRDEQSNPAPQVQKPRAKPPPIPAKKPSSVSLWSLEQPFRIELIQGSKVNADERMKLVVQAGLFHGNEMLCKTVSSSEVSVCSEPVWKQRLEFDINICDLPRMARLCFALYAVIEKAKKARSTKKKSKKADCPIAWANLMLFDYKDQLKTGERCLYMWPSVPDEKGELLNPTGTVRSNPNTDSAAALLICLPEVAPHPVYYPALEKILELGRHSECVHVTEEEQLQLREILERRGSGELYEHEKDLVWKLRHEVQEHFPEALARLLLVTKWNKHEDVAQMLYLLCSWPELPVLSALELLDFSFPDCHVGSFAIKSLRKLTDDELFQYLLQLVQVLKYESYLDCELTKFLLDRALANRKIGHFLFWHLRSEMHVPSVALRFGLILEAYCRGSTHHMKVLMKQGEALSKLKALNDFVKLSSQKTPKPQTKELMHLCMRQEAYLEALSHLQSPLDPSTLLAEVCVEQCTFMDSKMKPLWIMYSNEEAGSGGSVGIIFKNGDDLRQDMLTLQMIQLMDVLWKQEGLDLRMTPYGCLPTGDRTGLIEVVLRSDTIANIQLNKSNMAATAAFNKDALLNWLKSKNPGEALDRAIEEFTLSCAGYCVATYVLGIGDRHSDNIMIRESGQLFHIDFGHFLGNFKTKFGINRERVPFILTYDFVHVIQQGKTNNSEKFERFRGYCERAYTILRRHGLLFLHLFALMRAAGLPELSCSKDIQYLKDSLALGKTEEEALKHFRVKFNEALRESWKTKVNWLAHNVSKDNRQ
# [12] = molecular target: Phosphatidylinositol 4,5-bisphosphate 3-kinase catalytic subunit gamma isoform (Homo sapiens, UniProt P48736); assay: Inhibition of PI3Kgamma (unknown origin)
# MCF7 = assay: Antiproliferative activity against human MCF7 cells assessed as reduction in cell viability measured after 48 hrs by MTT assay; assay type: functional, cell-based; conditions: MCF7, 48 h
# MDA-MB-231 = assay type: functional, cell-based; conditions: Homo sapiens, MDA-MB-231, 48 h
# Chain of [Pyruvate dehydrogenase (acetyl-transferring)] kinase isozyme 1, mitochondrial (Q15118 whole entry): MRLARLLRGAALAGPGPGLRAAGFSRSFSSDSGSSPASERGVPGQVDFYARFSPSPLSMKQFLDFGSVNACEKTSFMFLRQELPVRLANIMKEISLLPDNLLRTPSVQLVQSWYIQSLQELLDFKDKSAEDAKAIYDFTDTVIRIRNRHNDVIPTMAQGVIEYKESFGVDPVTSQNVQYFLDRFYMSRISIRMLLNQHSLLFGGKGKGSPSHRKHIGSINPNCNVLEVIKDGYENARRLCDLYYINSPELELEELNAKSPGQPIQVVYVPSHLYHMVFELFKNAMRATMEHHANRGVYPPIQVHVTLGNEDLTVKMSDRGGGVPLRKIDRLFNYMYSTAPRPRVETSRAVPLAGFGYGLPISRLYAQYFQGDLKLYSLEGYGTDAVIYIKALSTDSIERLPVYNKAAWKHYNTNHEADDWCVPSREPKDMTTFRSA
# Chain of Phosphatidylinositol 4,5-bisphosphate 3-kinase catalytic subunit gamma isoform (P48736 whole entry, canonical isoform): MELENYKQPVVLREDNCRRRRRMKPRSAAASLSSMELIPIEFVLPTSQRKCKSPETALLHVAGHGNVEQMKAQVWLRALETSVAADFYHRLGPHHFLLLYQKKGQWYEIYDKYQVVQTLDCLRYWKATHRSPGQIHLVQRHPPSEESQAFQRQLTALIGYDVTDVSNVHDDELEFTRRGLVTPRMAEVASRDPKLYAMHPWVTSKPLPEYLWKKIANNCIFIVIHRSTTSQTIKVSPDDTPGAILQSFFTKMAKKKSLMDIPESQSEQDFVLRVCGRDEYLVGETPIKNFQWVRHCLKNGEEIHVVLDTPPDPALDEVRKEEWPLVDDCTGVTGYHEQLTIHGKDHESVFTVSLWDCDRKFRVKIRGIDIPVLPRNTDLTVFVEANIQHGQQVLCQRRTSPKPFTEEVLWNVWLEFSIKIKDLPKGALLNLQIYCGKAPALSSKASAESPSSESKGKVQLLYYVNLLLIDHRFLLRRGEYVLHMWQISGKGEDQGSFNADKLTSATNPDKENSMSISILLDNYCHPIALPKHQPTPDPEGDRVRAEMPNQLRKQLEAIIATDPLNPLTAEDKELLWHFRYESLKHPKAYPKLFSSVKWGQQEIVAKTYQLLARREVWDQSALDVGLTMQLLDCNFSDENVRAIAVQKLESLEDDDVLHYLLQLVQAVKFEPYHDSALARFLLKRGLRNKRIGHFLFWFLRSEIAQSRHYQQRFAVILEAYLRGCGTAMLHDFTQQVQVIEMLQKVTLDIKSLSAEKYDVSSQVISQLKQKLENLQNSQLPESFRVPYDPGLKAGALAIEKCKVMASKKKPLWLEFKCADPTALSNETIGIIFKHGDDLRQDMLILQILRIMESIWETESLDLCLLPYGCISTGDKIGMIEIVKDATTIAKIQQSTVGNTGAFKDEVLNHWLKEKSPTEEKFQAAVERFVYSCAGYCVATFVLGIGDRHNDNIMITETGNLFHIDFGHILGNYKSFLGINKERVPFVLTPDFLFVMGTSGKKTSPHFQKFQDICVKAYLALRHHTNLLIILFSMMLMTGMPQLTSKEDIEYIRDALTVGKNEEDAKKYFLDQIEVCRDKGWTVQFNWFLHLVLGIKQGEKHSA
# Chain of Phosphatidylinositol 4,5-bisphosphate 3-kinase catalytic subunit alpha isoform (P42336 whole entry, canonical isoform): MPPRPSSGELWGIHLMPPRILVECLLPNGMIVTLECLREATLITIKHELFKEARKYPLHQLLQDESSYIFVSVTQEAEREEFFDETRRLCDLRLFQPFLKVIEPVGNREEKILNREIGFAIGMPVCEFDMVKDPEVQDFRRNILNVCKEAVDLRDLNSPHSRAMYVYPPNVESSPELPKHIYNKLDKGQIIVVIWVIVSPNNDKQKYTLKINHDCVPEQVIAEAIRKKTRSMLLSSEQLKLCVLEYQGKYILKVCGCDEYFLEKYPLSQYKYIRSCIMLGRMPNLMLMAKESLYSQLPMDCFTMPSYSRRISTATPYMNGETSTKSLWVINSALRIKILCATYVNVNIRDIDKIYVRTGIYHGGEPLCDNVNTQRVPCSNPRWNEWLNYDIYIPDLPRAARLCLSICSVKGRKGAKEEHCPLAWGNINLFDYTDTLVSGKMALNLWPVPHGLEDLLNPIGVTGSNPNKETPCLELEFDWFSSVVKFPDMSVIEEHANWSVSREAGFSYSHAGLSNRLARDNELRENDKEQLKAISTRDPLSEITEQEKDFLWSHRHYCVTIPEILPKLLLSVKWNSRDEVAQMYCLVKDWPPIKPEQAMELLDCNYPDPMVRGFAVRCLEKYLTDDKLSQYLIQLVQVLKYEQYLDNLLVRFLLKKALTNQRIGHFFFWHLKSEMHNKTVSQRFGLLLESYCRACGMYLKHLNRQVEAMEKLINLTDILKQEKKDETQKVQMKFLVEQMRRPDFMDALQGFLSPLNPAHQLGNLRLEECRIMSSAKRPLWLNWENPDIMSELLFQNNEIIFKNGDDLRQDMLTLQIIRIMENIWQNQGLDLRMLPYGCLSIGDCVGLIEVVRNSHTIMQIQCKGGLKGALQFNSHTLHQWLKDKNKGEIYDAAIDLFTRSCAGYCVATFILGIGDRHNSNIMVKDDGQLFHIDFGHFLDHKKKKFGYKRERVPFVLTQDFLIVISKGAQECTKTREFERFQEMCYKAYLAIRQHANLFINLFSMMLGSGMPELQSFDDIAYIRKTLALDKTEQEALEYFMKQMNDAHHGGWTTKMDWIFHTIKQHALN
# Chain of Phosphatidylinositol 4,5-bisphosphate 3-kinase catalytic subunit beta isoform (P42338 whole entry, canonical isoform): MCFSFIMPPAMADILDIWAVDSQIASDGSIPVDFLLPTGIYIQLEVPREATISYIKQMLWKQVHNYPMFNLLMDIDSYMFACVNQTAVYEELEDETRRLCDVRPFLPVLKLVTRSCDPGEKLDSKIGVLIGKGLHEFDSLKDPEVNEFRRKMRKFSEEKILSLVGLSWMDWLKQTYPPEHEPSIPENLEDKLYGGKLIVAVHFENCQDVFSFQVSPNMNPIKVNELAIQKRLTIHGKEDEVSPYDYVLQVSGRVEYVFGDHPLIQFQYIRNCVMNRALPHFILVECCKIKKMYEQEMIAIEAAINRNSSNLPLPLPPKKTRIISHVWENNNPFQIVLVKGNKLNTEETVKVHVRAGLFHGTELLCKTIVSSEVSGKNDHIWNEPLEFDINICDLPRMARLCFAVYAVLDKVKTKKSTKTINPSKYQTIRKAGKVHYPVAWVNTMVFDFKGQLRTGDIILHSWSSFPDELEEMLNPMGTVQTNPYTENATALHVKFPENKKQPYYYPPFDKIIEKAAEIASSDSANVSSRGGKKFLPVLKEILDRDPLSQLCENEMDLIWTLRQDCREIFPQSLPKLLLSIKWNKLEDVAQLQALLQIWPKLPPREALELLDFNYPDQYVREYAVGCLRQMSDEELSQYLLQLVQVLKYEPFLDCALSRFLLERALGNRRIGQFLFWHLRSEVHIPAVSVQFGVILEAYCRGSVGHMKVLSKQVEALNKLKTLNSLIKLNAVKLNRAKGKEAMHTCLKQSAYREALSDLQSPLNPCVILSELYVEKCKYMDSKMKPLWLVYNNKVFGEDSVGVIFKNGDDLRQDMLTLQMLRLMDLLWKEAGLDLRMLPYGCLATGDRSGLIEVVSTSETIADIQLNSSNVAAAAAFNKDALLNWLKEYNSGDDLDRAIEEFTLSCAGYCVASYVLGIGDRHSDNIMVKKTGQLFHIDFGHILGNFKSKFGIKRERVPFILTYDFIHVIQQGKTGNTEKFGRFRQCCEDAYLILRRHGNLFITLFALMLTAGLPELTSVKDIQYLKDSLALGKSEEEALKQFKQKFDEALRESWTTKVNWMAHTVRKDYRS
# Chain of Voltage-gated inwardly rectifying potassium channel KCNH2 (Q12809 whole entry): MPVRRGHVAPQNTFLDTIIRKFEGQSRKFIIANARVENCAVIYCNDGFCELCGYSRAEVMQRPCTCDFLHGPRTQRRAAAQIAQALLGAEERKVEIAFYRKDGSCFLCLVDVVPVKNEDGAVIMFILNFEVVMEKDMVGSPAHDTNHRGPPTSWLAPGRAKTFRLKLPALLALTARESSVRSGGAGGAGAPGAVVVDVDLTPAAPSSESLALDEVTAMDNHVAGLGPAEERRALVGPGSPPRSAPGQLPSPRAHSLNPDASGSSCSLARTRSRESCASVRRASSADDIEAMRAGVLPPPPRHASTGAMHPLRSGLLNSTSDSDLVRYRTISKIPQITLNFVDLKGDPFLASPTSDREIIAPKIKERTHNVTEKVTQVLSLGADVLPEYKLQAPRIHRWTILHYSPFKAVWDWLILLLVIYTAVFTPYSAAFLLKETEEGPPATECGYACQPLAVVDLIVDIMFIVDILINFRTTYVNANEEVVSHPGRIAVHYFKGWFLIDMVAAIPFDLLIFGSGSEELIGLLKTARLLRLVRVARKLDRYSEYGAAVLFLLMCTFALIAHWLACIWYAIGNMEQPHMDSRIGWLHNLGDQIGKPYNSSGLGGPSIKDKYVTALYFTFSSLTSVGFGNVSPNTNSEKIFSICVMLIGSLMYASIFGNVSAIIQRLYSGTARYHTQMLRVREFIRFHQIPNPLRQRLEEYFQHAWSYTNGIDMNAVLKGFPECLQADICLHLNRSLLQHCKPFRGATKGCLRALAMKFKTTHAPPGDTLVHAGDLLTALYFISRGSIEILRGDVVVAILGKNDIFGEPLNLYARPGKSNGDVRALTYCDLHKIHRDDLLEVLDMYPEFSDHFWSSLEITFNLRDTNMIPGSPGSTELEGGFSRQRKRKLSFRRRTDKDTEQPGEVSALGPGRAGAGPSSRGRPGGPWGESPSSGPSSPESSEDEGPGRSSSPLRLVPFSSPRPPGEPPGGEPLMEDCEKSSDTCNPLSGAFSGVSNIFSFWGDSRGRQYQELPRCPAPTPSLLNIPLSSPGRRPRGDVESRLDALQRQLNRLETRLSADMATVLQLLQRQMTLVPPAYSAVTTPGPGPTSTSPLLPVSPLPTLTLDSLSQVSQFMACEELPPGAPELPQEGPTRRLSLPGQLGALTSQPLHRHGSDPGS
structure (smiles),measurement,setting,value
NC(=O)c1cc(Cl)c2c(Cl)c(C3CC3)n(C3CCCNC3)c2n1 (centres undefined),pIC50,[1],6.00
same,pIC50,KG-1,> 7.00
NC(=O)c1cc(Cl)c2c(Cl)c(I)n(C3CCCNC3)c2n1 (centres undefined),pIC50,[1],6.00
same,pIC50,KG-1,> 7.00
NC(=O)c1cc(Cl)c2c(Cl)c(C#CC3CC3)n(C3CCCNC3)c2n1 (centres undefined),pIC50,KG-1,> 7.00
Cc1cc(-n2cc(C(=O)N3CCOCC3)c3ccc(N[C@@H](C)c4ccc(F)cn4)nc32)[nH]n1,pIC50,[2],8.60
same,"efflux ratio at 1.5 h, 5 µM",[3],18
COc1ccc(-c2cnc3[nH]cc(C#Cc4cccnc4)c3c2)cc1OC,pEC50,Dengue virus,6.14
CN1CCN(Cc2ccc(NC(=O)c3cccc(/N=N/c4cnc5[nH]ccc5c4)c3)cc2C(F)(F)F)CC1,pIC50,[4],7.30
Cn1cc(-c2nc(N)nnc2-c2c[nH]c3ccc(F)cc23)c2cc(Br)cnc21,pIC50,[5],7.52
same,pIC50,PSN1,5.48
Oc1ccc(-c2cnc3[nH]ccc3c2)cc1,pIC50,[6],5.83
Cn1cc(-c2nnc(N)nc2-c2c[nH]c3ccc(Br)cc23)c2cc(Br)cnc21,pIC50,[5],7.52
same,pIC50,PSN1,5.48
NC(=O)c1ccc(-c2cc3cccnc3[nH]2)cc1,pIC50,[6],7.05
O=C(c1ccc(-c2cc3cccnc3[nH]2)cc1)N1CCOCC1,pIC50,[7],7.10
same,pIC50,[8],< 4.70
Cn1cc(-c2nc(N)nnc2-c2c[nH]c3ccc(Br)cc23)c2cc(Br)cnc21,pIC50,[5],7.52
same,pIC50,PSN1,5.48
Cn1cc(-c2nnc(N)nc2-c2c[nH]c3ccc(F)cc23)c2cc(Br)cnc21,pIC50,[5],7.52
same,pIC50,PSN1,5.48
O=S(=O)(Nc1cc(-c2cnc3[nH]cc(-c4ccc(N5CCOCC5)nc4)c3c2)cnc1Cl)c1ccccc1,pIC50,[9],9.52
same,pIC50,[10],9.52
same,pIC50,[11],9.52
same,pIC50,[12],9.52
same,pIC50,MCF7,5.92
same,pIC50,MDA-MB-231,6.35
Cc1cc(-n2cc(C(=O)N3CCO[C@@H](C)C3)c3ccc(OC(C)c4ccc(F)cn4)nc32)n[nH]1 (some centres undefined),"efflux ratio at 1.5 h, 5 µM",[3],1
O=S(=O)(Nc1cc(-c2cnc3[nH]cc(-c4cnn(CCN5CCOCC5)c4)c3c2)cnc1Cl)c1ccccc1,pIC50,[9],9.52
same,pIC50,[10],9.52
same,pIC50,[11],9.52
same,pIC50,[12],9.52
same,pIC50,MCF7,5.22
same,pIC50,MDA-MB-231,5.92
